# Measured values: ChEMBL document CHEMBL5532677, “From Hit to Lead: Structure-Based Optimization of Novel Selective Inhibitors of Receptor-Interacting Protein Kinase 1 (RIPK1) for the Treatment of Inflammatory Diseases” (J Med Chem, 2024)
# Calls of active or inactive are those of the source. The calls are words filed in the database; no cut-off is given here.
# Columns and labels:
# Format in all cases: functional, organism-based
# Conditions in all cases: route top, time 7.0 day
# Mus musculus [1] = assay: Anti-inflammatory activity in BALB/c mouse model of IMQ-induced psoriasis assessed as reduction in PASI score at 100 mg administered topically as 0.005% ointment measured daily for 7 days by H and E staining based analysis
# Mus musculus [2] = assay: Anti-inflammatory activity in BALB/c mouse model of IMQ-induced psoriasis assessed as improvement in skin thickening at 100 mg administered topically as 0.005% ointment measured daily for 7 days by H and E staining based analysis
# Mus musculus [3] = assay: Anti-inflammatory activity in BALB/c mouse model of IMQ-induced psoriasis assessed as improvement in erythema at 100 mg administered topically as 0.005% ointment measured daily for 7 days by H and E staining based analysis
smiles,measurement,setting,value
C=C1/C(=C\C=C2/CCC[C@]3(C)[C@@H]([C@H](C)/C=C/[C@@H](O)C4CC4)CC[C@@H]23)C[C@@H](O)C[C@@H]1O,Activity,Mus musculus [1],Active
same,Activity,Mus musculus [2],inactive
same,Activity,Mus musculus [3],inactive
